Holding throughout (type): ADME, organism-based
Data set [1] in a line: Oral bioavailability in human. Particulars: in vivo.
Data set [2] can be described thus: Tmax in RA patient at 7.5 to 25 mg, im. Particulars: human, in vivo.
The nature of data set [3]: Tmax in RA patient at 7.5 to 25 mg, po. The following applies: human, in vivo.

The term bioavailability denotes dose-corrected exposure relative to a reference, in per cent. Higher therefore signals much systemic uptake. What is called Tmax is the time from dosing to the highest level.

Turning to `CN(Cc1cnc2nc(N)nc(N)c2n1)c1ccc(C(=O)N[C@@H](CCC(=O)O)C(=O)O)cc1` [METHOTREXATE], the bioavailability in data set [1] was 50 to 80%. Also, the results for the Tmax in data set [2] and in data set [3] were 1.3 h and 1.5 h, respectively.

The values above are taken from ChEMBL document CHEMBL4265941, “Side effects of methotrexate therapy for rheumatoid arthritis: A systematic review” (Eur J Med Chem, 2018).
